According to ChEMBL document CHEMBL2057064, “Activation of human RNase L by 2'- and 5'-O-methylphosphonate-modified oligoadenylates” (Bioorg Med Chem Lett, 2012):
The source made the active and inactive calls. No cut-off for these calls is given here.

Target: T1, 2-5A-dependent ribonuclease (Homo sapiens) (UniProt Q05823)
T1 sequence (whole entry): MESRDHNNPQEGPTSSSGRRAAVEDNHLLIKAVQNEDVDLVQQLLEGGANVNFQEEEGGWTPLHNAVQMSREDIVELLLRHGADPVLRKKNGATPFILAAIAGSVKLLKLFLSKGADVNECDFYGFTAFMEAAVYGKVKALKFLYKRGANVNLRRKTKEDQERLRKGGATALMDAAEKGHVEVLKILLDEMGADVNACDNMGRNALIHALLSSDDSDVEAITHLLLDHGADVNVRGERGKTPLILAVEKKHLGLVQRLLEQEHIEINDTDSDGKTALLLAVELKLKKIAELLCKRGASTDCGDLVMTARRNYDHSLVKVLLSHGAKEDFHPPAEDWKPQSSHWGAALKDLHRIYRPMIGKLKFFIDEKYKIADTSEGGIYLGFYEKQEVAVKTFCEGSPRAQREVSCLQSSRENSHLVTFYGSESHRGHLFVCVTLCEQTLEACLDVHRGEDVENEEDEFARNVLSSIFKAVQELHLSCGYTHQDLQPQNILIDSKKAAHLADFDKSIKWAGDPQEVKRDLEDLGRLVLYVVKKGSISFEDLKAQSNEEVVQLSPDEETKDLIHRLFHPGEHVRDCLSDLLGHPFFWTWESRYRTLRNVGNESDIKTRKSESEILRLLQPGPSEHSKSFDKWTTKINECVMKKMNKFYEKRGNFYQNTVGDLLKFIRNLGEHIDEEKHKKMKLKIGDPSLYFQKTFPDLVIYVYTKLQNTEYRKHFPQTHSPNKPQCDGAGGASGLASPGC
Assay: Antagonist activity at human RNase L expressed in Escherichia coli BL21 (DE3) cells assessed as RNA cleavage using Cy5-C11-rUU-C7-BHQ2 as substrate by FRET assay in presence of natural activator pAAAA
Format: functional

Compound | inhibition
Nc1ncnc2c1ncn2[C@@H]1O[C@H](COP(=O)(O)O[C@@H]2[C@H](O)[C@@H](COCP(=O)(O)O[C@@H]3[C@H](O)[C@@H](COP(=O)(O)O[C@@H]4[C@H](O)[C@@H](COCP(=O)(O)O)O[C@H]4n4cnc5c(N)ncnc54)O[C@H]3n3cnc4c(N)ncnc43)O[C@H]2n2cnc3c(N)ncnc32)[C@@H](O)[C@H]1O | inactive
Nc1ncnc2c1ncn2[C@@H]1O[C@H](COP(=O)(O)CO[C@@H]2[C@H](O)[C@@H](COP(=O)(O)CO[C@@H]3[C@H](O)[C@@H](COP(=O)(O)CO[C@@H]4[C@H](O)[C@@H](COP(=O)(O)O)O[C@H]4n4cnc5c(N)ncnc54)O[C@H]3n3cnc4c(N)ncnc43)O[C@H]2n2cnc3c(N)ncnc32)[C@@H](O)[C@H]1O | inactive
Nc1ncnc2c1ncn2[C@@H]1O[C@H](COP(=O)(O)O[C@@H]2[C@H](O)[C@@H](COCP(=O)(O)O[C@@H]3[C@H](O)[C@@H](COCP(=O)(O)O[C@@H]4[C@H](O)[C@@H](COP(=O)(O)O)O[C@H]4n4cnc5c(N)ncnc54)O[C@H]3n3cnc4c(N)ncnc43)O[C@H]2n2cnc3c(N)ncnc32)[C@@H](O)[C@H]1O | inactive
Nc1ncnc2c1ncn2[C@@H]1O[C@H](COCP(=O)(O)O[C@@H]2[C@H](O)[C@@H](COP(=O)(O)O[C@H]3[C@H](O)[C@@H](COCP(=O)(O)O[C@@H]4[C@H](O)[C@@H](COP(=O)(O)O)O[C@H]4n4cnc5c(N)ncnc54)O[C@H]3n3cnc4c(N)ncnc43)O[C@H]2n2cnc3c(N)ncnc32)[C@@H](O)[C@@H]1O | inactive
Nc1ncnc2c1ncn2[C@@H]1O[C@H](COCP(=O)(O)O[C@H]2[C@H](O)[C@@H](COCP(=O)(O)O[C@H]3[C@H](O)[C@@H](COCP(=O)(O)O[C@H]4[C@H](O)[C@@H](COCP(=O)(O)O)O[C@H]4n4cnc5c(N)ncnc54)O[C@H]3n3cnc4c(N)ncnc43)O[C@H]2n2cnc3c(N)ncnc32)[C@@H](O)[C@@H]1O | inactive
Nc1ncnc2c1ncn2[C@@H]1O[C@H](COP(=O)(O)O[C@H]2[C@H](O)[C@@H](COCP(=O)(O)O[C@H]3[C@H](O)[C@@H](COCP(=O)(O)O[C@@H]4[C@H](O)[C@@H](COP(=O)(O)O)O[C@H]4n4cnc5c(N)ncnc54)O[C@H]3n3cnc4c(N)ncnc43)O[C@H]2n2cnc3c(N)ncnc32)[C@@H](O)[C@H]1O | inactive
Nc1ncnc2c1ncn2[C@@H]1O[C@H](COP(=O)(O)O[C@@H]2[C@@H](O)[C@@H](COCP(=O)(O)O[C@@H]3[C@@H](O)[C@@H](COCP(=O)(O)O[C@@H]4[C@H](O)[C@@H](COP(=O)(O)O)O[C@H]4n4cnc5c(N)ncnc54)O[C@H]3n3cnc4c(N)ncnc43)O[C@H]2n2cnc3c(N)ncnc32)[C@@H](O)[C@H]1O | inactive
Nc1ncnc2c1ncn2[C@@H]1O[C@H](COP(=O)(O)CO[C@@H]2[C@@H](O)[C@@H](COP(=O)(O)O[C@@H]3[C@H](O)[C@@H](COP(=O)(O)CO[C@@H]4[C@@H](O)[C@@H](COP(=O)(O)O)O[C@H]4n4cnc5c(N)ncnc54)O[C@H]3n3cnc4c(N)ncnc43)O[C@H]2n2cnc3c(N)ncnc32)[C@@H](O)[C@H]1O | inactive
Nc1ncnc2c1ncn2[C@@H]1O[C@H](COCP(=O)(O)O[C@@H]2[C@H](O)[C@@H](COP(=O)(O)O[C@@H]3[C@H](O)[C@@H](COCP(=O)(O)O[C@@H]4[C@H](O)[C@@H](COP(=O)(O)O)O[C@H]4n4cnc5c(N)ncnc54)O[C@H]3n3cnc4c(N)ncnc43)O[C@H]2n2cnc3c(N)ncnc32)[C@@H](O)[C@H]1O | inactive
Nc1ncnc2c1ncn2[C@@H]1O[C@H](COP(=O)(O)CO[C@@H]2[C@H](O)[C@@H](COP(=O)(O)CO[C@@H]3[C@H](O)[C@@H](COP(=O)(O)O[C@@H]4[C@H](O)[C@@H](COP(=O)(O)O)O[C@H]4n4cnc5c(N)ncnc54)O[C@H]3n3cnc4c(N)ncnc43)O[C@H]2n2cnc3c(N)ncnc32)[C@@H](O)[C@H]1O | inactive
